Data reported in patent US20170333390A1, “PHYTOCHEMICAL COMPOSITIONS INCLUDING SESAMIN FOR ANTI-INFLAMMATORY, ANTI-CYTOKINE STORM, AND OTHER USES” (CHIANG MAI UNIVERSITY, priority 2009, published 2017).

System: IL-1 gene expression in LPS induced synovial fibroblast (SF) cells
Assay: IL-1 gene expression relative to GAPDH in LPS induced synovial fibroblast cells (RT-PCR)
Type: cell-based
Conditions: 24 hours
Protocol: Experiments were conducted to evaluate the effect of particular phytochemical compositions provided by the present disclosure on IL-1 gene expression in specified cells found within a body of a living organism. The cells used for the experiments described in example one are lipopolysaccharide (LPS) induced synovial fibroblast (SF) cells. The SF cells were isolated from synovium tissue (also referred to as synovial tissue) using standard cell isolation techniques or methods known to a person of ordinary skill in the art. In addition, LPS is obtained from a commercial source, for example Sigma-Aldrich Co. It is understood by a person having ordinary skill in the art that the SF cells may be substituted with other immune cells found within the body, for example peripheral blood mononuclear cells, lymphocytes, monocytes, and macrophages, which can be isolated using techniques or methods known to a person of ordinary skill in the art. […]
The amount or level of IL-1 gene expression in the SF cells was measured or determined using methods or techniques known to a person having ordinary skill in the relevant art. In example 1, Real-Time PCR (RT-PCR) was used for quantifying the amount of IL-1 gene expression in the SF cells. IL-1beta or IL-1β specific primers were used during RT-PCR, thereby facilitating the quantification of IL-1β gene expression in the SF cells. […]

In the case of `c1cc2c(cc1[C@H]1OC[C@H]3[C@@H]1CO[C@@H]3c1ccc3c(c1)OCO3)OCO2` [sesamin], the “decrease in IL-1 gene expression relative to GAPDH” value (0.025 mM sesamin (culture 4), compared to control culture 3 (LPS 0.2 μg/ml + DMSO)) is reported as “approximately 20%” and the “decrease in IL-1 gene expression relative to GAPDH” value (1.0 mM sesamin (culture 9), compared to control culture 2 (LPS 0.2 μg/ml)) is reported as “approximately 65%”.
